According to patent US20160151369A1, “SUBSTITUTED 3-PHENYLPROPYLAMINE DERIVATIVES FOR THE TREATMENT OF OPHTHALMIC DISEASES AND DISORDERS” (ACUCELA INC., priority 2013, published 2016):

System: isomerase (recovery of 11-cis-retinal after bleaching)
Test: In vivo murine isomerase assay (Table 3)
Conditions: Mus musculus, po, mice
Description: The capability of compounds described herein to inhibit isomerase was determined by an in vivo murine isomerase assay. […] The recovery of 11-cis-retinal after bleaching can be used to estimate the activity of isomerase in vivo. Delayed recovery, as represented by lower 11-cis-retinal oxime levels, indicates inhibition of isomerization reaction.
Mice were gavaged with the test compound. […] The mice were allowed to recover 2 hours in the dark. The animals were then sacrificed by carbon dioxide inhalation. Retinoids were extracted from the eye and the regeneration of 11-cis-retinal was assessed at various time intervals.
After the mice were sacrificed, the eyes were immediately removed and placed in liquid nitrogen for storage.
The eyes were placed in 500 μL of bis-tris propane buffer (10 mM, pH˜7.3) and 20 μL of 0.8M hydroxile amine (pH˜7.3). The eyes were cut up into small pieces with small iris scissors and then thoroughly homogenized at 30000 rpm with a mechanical homogenizer (Polytron PT 1300 D) in the tube until no visible tissue remained. 500 μL of methanol and 500 μL of heptane were added to each tube. The tubes were attached to a vortexer so that the contents were mixed thoroughly for 15 minutes in room temperature. The organic phase was separated from the aqueous phase by centrifugation for 10 min at 13K rpm, 4° C. 240 μL of the solution from the top layer (organic phase) was removed and transferred to clean 300 μl glass inserts in HPLC vials using glass pipette and the vials were crimped shut tightly.
The samples were analyzed on an Agilent 1100 HPLC system with normal phase column: SILICA (Beckman Coutlier, dp 5 μm, 4.6 mM×250 mM). […] Loading volume for each sample was 100 μl; detection wavelength was 360 nm. The area under the curve for 11-cis retinal oxime was calculated by Agilent Chemstation software and was recorded manually. Data processing was performed using Prizm software.
Positive control mice (no compound administered) were sacrificed fully dark-adapted and the eye retinoids analyzed. Light (bleached) control mice (no compound administered) were sacrificed and retinoids isolated and analyzed immediately after light treatment.
A time course study was performed to determine the isomerase inhibitory activity of the test compound. […] The animals were then “photo-bleached” (5000 Lux white light for 10 minutes) at 2, 4, 8, 16 and 24 hours after dosing, and returned to darkness to allow recovery of the 11-cis-retinal content of the eyes. Mice were sacrificed 2 hours after bleaching, eyes were enucleated, and retinoid content is analyzed by HPLC.
Recovery control mice (vehicle-only treated) were light-treated and left to recover for 2 hours in the dark before sacrifice and analysis. Light control mice (vehicle only treated) were sacrificed for analysis immediately after photo-bleaching.
An in vivo dose response isomerase inhibition study was performed with test compound. […] Recovery and retinoid analysis were performed as described above. Dark control mice were vehicle-only treated, sacrificed fully dark adapted without light treatment, and analyzed. Recovery control mice and light control mice were included in the study as per the initial phase.

Row | SMILES | inhibition at 1 mg/kg (2 h) | inhibition at 1 mg/kg (4 h) | also measured
1 | NCC[C@@H](O)c1cccc(OCC2CCCOC2)c1 (mixture of isomers) [Example 3, (1R)-3-Amino-1-(3-((tetrahydro-2H-pyran-3-yl)methoxy)phenyl)propan-1-ol] | 98.7% | 94.2% | inhibition at 0.01 mg/kg (2 h): 1.2%; inhibition at 0.03 mg/kg (2 h): 2.7%; inhibition at 0.1 mg/kg (2 h): 4.2%; inhibition at 0.3 mg/kg (2 h): 75.2%; inhibition at 3 mg/kg (2 h): 102%; inhibition at 0.3 mg/kg (4 h): 59.7%; inhibition at 0.3 mg/kg (8 h): 14.8%; inhibition at 0.3 mg/kg (16 h): 1.6%; inhibition at 0.3 mg/kg (24 h): 4.1%
2 | NCC[C@@H](O)c1cccc(OCC2CCCSC2)c1 (mixture of isomers) [Example 7, (1R)-3-Amino-1-(3-((tetrahydro-2H-thiopyran-3-yl)methoxy)phenyl)propan-1-ol] | 60.5% | 68% | inhibition at 1 mg/kg (8 h): 40.3%
3 | NCC[C@@H](O)c1cccc(OCC2CCCS(=O)(=O)C2)c1 (mixture of isomers) [Example 10, 3-((3-((R)-3-Amino-1-hydroxypropyl)phenoxy)methyl)tetrahydro-2H-thiopyran 1,1-dioxide] | – | -7.6% | –
4 | NCC[C@@H](O)c1cccc(OCC2Cc3ccccc3O2)c1 (mixture of isomers) [Example 13, (1R)-3-Amino-1-(3-((2,3-dihydrobenzofuran-2-yl)methoxy)phenyl)propan-1-ol] | 62.1% | – | –
5 | NCC[C@@H](O)c1cccc(OCC2CCCO2)c1 (mixture of isomers) [Example 14, (1R)-3-Amino-1-(3-((tetrahydrofuran-2-yl)methoxy)phenyl)propan-1-ol] | 79.2% | 59.8% | inhibition at 1 mg/kg (8 h): 0.8%
6 | NCC[C@@H](O)c1cccc(OCC2COc3ccccc3C2)c1 (mixture of isomers) [Example 19, (1R)-3-Amino-1-(3-(chroman-3-ylmethoxy)phenyl)propan-1-ol] | – | 91.4% | inhibition at 0.3 mg/kg (2 h): 49.4%; inhibition at 0.3 mg/kg (4 h): 40%; inhibition at 0.3 mg/kg (8 h): 15.5%
7 | NCCC(O)c1cccc(OCC2CCOCC2)c1 (centres unmarked) [Example 2, 3-Amino-1-(3-((tetrahydro-2H-pyran-4-yl)methoxy)phenyl)propan-1-ol] | – | 89.9% | –
8 | NCC[C@@H](O)c1cccc(OCc2ccncc2)c1 [Example 4, (R)-3-amino-1-(3-(pyridin-4-ylmethoxy)phenyl)propan-1-ol] | – | -8.7% | –
9 | NCC[C@@H](O)c1cccc(OCc2cccnc2)c1 [Example 5, (R)-3-Amino-1-(3-(pyridin-3-ylmethoxy)phenyl)propan-1-ol] | – | 3.1% | –
10 | NCC[C@@H](O)c1cccc(OCC2CCSCC2)c1 [Example 8, (R)-3-Amino-1-(3-((tetrahydro-2H-thiopyran-4-yl)methoxy)phenyl)propan-1-ol] | – | 33.2% | –
11 | NCC[C@@H](O)c1cccc(OCC2CCS(=O)(=O)CC2)c1 [Example 9, (R)-4-((3-(3-Amino-1-hydroxypropyl)phenoxy)methyl)tetrahydro-2H-thiopyran 1,1-dioxide] | – | -8.2% | –
12 | CC(=O)N1CCC(COc2cccc([C@H](O)CCN)c2)CC1 [Example 11, (R)-1-(4-((3-(3-Amino-1-hydroxypropyl)phenoxy)methyl)piperidin-1-yl)ethanone] | -4.7% | 2.6% | inhibition at 1 mg/kg (8 h): -3.8%
13 | Cc1cccc(COc2cccc([C@H](O)CCN)c2)n1 [Example 12, (R)-3-Amino-1-(3-((6-methylpyridin-2-yl)methoxy)phenyl)propan-1-ol] | – | 11.2% | –
14 | COC(=O)N1CCC(COc2cccc([C@H](O)CCN)c2)CC1 [Example 17, (R)-Methyl 4-((3-(3-amino-1-hydroxypropyl)phenoxy)methyl)piperidine-1-carboxylate] | 93% | 88% | inhibition at 0.01 mg/kg (2 h): 0%; inhibition at 0.03 mg/kg (2 h): -2%; inhibition at 0.1 mg/kg (2 h): 9%; inhibition at 0.3 mg/kg (2 h): 8%; inhibition at 3 mg/kg (2 h): 100%; inhibition at 1 mg/kg (8 h): 25%; inhibition at 1 mg/kg (16 h): -1%; inhibition at 1 mg/kg (24 h): -8%
15 | NCC[C@@H](O)c1cccc(NCC2CCOCC2)c1 [Example 23, (R)-3-Amino-1-(3-(((tetrahydro-2H-pyran-4-yl)methyl)amino)phenyl)propan-1-ol] | 4.4% | -1.4% | inhibition at 1 mg/kg (8 h): 1.5%
16 | NCC[C@@H](O)c1cccc(OCC2CCCC(=O)N2)c1 (some centres unmarked) [Example 27] | – | 9% | –
17 | NCC[C@@H](O)c1cccc(OCc2cccs2)c1 [Example 28, (R)-3-Amino-1-(3-(thiophen-2-ylmethoxy)phenyl)propan-1-ol] | – | 50.6% | –
18 | NCC[C@@H](O)c1cccc(OCc2ccsc2)c1 [Example 29, (R)-3-Amino-1-(3-(thiophen-3-ylmethoxy)phenyl)propan-1-ol] | – | 27.4% | –
19 | NC/C=C/c1cccc(OCC2CCOCC2)c1 [Example 31, (E)-3-(3-((Tetrahydro-2H-pyran-4-yl)methoxy)phenyl)prop-2-en-1-amine] | 11.3% | – | –
20 | NCCCc1cccc(OCC2CCOCC2)c1 [Example 32, 3-(3-((Tetrahydro-2H-pyran-4-yl)methoxy)phenyl)propan-1-amine] | 14.2% | – | –
21 | CNCC[C@@H](O)c1cccc(OCC2CCOCC2)c1 [Example 33, (R)-3-(Methylamino)-1-(3-((tetrahydro-2H-pyran-4-yl)methoxy)phenyl)propan-1-ol] | 65.2% | 54.5% | inhibition at 1 mg/kg (8 h): 10.9%; inhibition at 1 mg/kg (16 h): -0.8%; inhibition at 1 mg/kg (24 h): 1.8%
22 | NCC[C@@H](O)c1cccc(NCC2CCCCC2)c1 [reference compound] | – | 96% | –
